{"source": "patent US20230338454A1", "about": "“FORSYTHIA SUSPENSA COMPONENT AND OPTIONAL PANAX GINSENG COMPONENT AND THE APPLICATION” (priority 2020, published 2023)", "key": {"HCMV AD169 strain": {"system": "HCMV AD169 strain", "assay": "Inhibitory effect on HCMV in vitro (MEC, therapeutic index)", "assay_type": "cell-based, human cytomegalovirus", "conditions": "HCMV AD169, 100 times TCD50, 10 days of culture", "protocol": "Human embryonic lung fibroblast cell strain (purchased from Sino Best Biological Technology Co., Ltd.). The cells were cultured and subcultured according to the conventional method.\nHCMV AD169 strain was purchased from American Type Culture Collection (ATCC).\nCells were inoculated in a 96-well plate, allowed to grow into monolayers, and inoculated with a virus challenge of 100 times TCD50. Starting from TD0, each drug was diluted stepwise according to 10-fold gradient to prepare 5 concentrations, with 4 wells set for each concentration. In addition, 4 wells of normal cell control and 4 wells of virus control were set."}, "[1]": {"system": "Herpes simplex virus type 1 (HSV-1)", "assay": "Effect of drugs on viral cytopathic effect, effective antiviral rate (ER%)", "assay_type": "cell-based", "conditions": "Vero cells, 100TCID50, drug at maximum non-toxic concentration, 72 h, MTT"}, "enterovirus 71 (EV71)": {"system": "enterovirus 71 (EV71)", "assay": "Effect of drugs on viral cytopathic effect, effective antiviral rate (ER%)", "assay_type": "cell-based", "conditions": "Vero cells, 100TCID50, drug at maximum non-toxic concentration, 72 h, MTT"}, "Coxsackievirus B3 (CVB3)": {"system": "Coxsackievirus B3 (CVB3)", "assay": "Effect of drugs on viral cytopathic effect, effective antiviral rate (ER%)", "assay_type": "cell-based", "conditions": "Vero cells, 100TCID50, drug at maximum non-toxic concentration, 72 h, MTT"}, "influenza virus": {"system": "influenza virus", "assay_type": "in vivo, Kunming mice", "conditions": "13.0 mg/kg/day by gavage, 5 days"}, "[2]": {"system": "epithelial cells of plantar sweat glands of rats", "assay": "Sweat secretion of rat paw (histomorphology observation method)", "assay_type": "in vivo, Wistar rats", "conditions": "1 h after gavage, dose not given", "from_the_text": "After sweat glands activation in rats, besides the increase of sweat secretion, the morphology of the epithelial cells of the sweat glands changes accordingly. Under the optical microscope, the increase and enlargement of vacuoles in the epithelial cells of the sweat glands are observed. Under an electron microscope, the enlarged vacuoles appear to be due to swelling and rupture of mitochondria, enlargement of fusion and secretory vesicles in the epithelial cells of sweat glands. The secretory activity of sweat glands could be understood by observing the histomorphology of the epithelial cells of plantar sweat glands of rats. Three hundred Wistar rats, half male and half female, weighing 120-160 g. were taken in the study. […] Except for the pilocarpine solution given by subcutaneous injection, other groups were administered by gavage. One hour after the control group was given 0.5% carboxymethyl cellulose, 30 min after the positive drug group was given pilocarpine, and 1 h after the administration of forsythin, ginsenoside Rg3 and the panax ginseng-forsythia suspensa composition, the right hind limb was immediately cut off at the level of the ankle joint. […] Observations were made under an optical microscope for changes in the epithelial cells of the plantar sweat glands of rats in each group, mainly the incidence of vacuoles. The statistical processing was performed by X^2 test, and differences among the groups were compared. The above study was repeated for 3 times."}, "[3]": {"system": "carrageenan-induced paw swelling", "assay": "Carrageenan-induced paw swelling in rats", "assay_type": "in vivo, Wistar rats", "conditions": "sublingual intravenous injection; for Swelling rate (%) 15 min: 15 min after inflammation induction; for Swelling rate (%) 30 min: 30 min after inflammation induction; for Swelling rate (%) 60 min: 60 min after inflammation induction; for Swelling rate (%) 120 min: 120 min after inflammation induction; for Swelling rate (%) 180 min: 180 min after inflammation induction; for Swelling rate (%) 240 min: 240 min after inflammation induction; for Swelling rate (%) 300 min: 300 min after inflammation induction; for Swelling rate (%) 360 min: 360 min after inflammation induction", "protocol": "Each group was administered by sublingual intravenous injection. Before the study, the normal volume of the right hind limb was measured by the capillary magnification method. To avoid errors, the measurement position should be fixed and performed by one person before and after administration. The average of the two measurements was taken as the normal volume of the right hind limb of the rats prior to administration. […] The inter-group t-test was performed by the difference percentage (swelling rate) of the plantar volume before and after the inflammation induction, and the differences among the groups were compared."}, "[4]": {"system": "Human embryonic lung fibroblast cell strain", "assay": "Drug toxicity testing (MTT and cytopathic effect methods), maximum non-toxic concentration TD0", "conditions": "human embryonic lung fibroblasts"}, "[5]": {"conditions": "lung suspension, mice infected with influenza virus"}}, "note": "Read-outs that look alike come from different tables or passages of the source."}
{"compound": "COc1ccc([C@H]2OCC3C2CO[C@H]3c2ccc(O[C@@H]3OC(CO)[C@@H](O)[C@H](O)C3O)c(OC)c2)cc1OC", "note": "(stereo partly shown) [Forsythin]", "values": [{"measurement": "Minimum effective concentration MEC", "setting": "HCMV AD169 strain", "value": 4, "unit": "mg/L"}, {"measurement": "Effective Antiviral Rates (ER%) HSV-I", "setting": "[1]", "value": "85.00^∗∗ %"}, {"measurement": "Effective Antiviral Rates (ER%) EV71", "setting": "enterovirus 71 (EV71)", "value": "84.85^∗∗ %"}, {"measurement": "Effective Antiviral Rates (ER%) CVB3", "setting": "Coxsackievirus B3 (CVB3)", "value": "75.27^∗∗ %"}, {"measurement": "Hemagglutinin titer (InX)", "setting": "influenza virus; [5]", "value": "22.06±1.120"}, {"measurement": "Inhibitory rate (%) of hemagglutination titer", "setting": "influenza virus; [5]", "value": 31.90, "unit": "%"}, {"measurement": "Number of vacuolar sweat glands (number)", "setting": "[2]", "value": 86, "unit": "number"}, {"measurement": "Vacuolation rate (%)", "setting": "[2]", "value": "22.15^∗∗ %"}, {"measurement": "Swelling rate (%) 15 min", "setting": "[3]; 10.0 mg/kg", "value": "12.9±8.41", "unit": "%"}, {"measurement": "Swelling rate (%) 30 min", "setting": "[3]; 10.0 mg/kg", "value": "19.9±9.55", "unit": "%"}, {"measurement": "Swelling rate (%) 60 min", "setting": "[3]; 10.0 mg/kg", "value": "21.8±11.8", "unit": "%"}, {"measurement": "Swelling rate (%) 120 min", "setting": "[3]; 10.0 mg/kg", "value": "28.9±14.0^∗ %"}, {"measurement": "Swelling rate (%) 180 min", "setting": "[3]; 10.0 mg/kg", "value": "30.8±15.4^∗ %"}, {"measurement": "Swelling rate (%) 240 min", "setting": "[3]; 10.0 mg/kg", "value": "29.9±11.1^∗ %"}, {"measurement": "Swelling rate (%) 300 min", "setting": "[3]; 10.0 mg/kg", "value": "33.5±10.0^∗ %"}, {"measurement": "Swelling rate (%) 360 min", "setting": "[3]; 10.0 mg/kg", "value": "32.2±11.9^∗ %"}, {"measurement": "Maximum non-toxic concentration TD0", "setting": "[4]", "value": 40, "unit": "mg/L"}]}
{"compound": "CC(C)=CCC[C@](C)(O)[C@H]1CC[C@]2(C)[C@@H]1[C@H](O)C[C@@H]1[C@@]3(C)CC[C@H](O[C@@H]4O[C@H](CO)[C@@H](O)[C@H](O)[C@H]4O[C@@H]4O[C@H](CO)[C@@H](O)[C@H](O)[C@H]4O)C(C)(C)[C@@H]3CC[C@]12C", "note": "[20(R)-Ginsenoside Rg3, 20(R)-ginsenoside Rg3]", "values": [{"measurement": "Effective Antiviral Rates (ER%) HSV-I", "setting": "[1]", "value": "83.61^∗∗ %"}, {"measurement": "Effective Antiviral Rates (ER%) EV71", "setting": "enterovirus 71 (EV71)", "value": "74.66^∗∗ %"}, {"measurement": "Effective Antiviral Rates (ER%) CVB3", "setting": "Coxsackievirus B3 (CVB3)", "value": 53.75, "unit": "%"}, {"measurement": "Hemagglutinin titer (InX)", "setting": "influenza virus; […]", "value": "22.61±1.059"}, {"measurement": "Inhibitory rate (%) of hemagglutination titer", "setting": "influenza virus; […]", "value": 30.22, "unit": "%"}, {"measurement": "Number of vacuolar sweat glands (number)", "setting": "[2]", "value": 79, "unit": "number"}, {"measurement": "Vacuolation rate (%)", "setting": "[2]", "value": "20.26^∗∗ %"}, {"measurement": "Swelling rate (%) 15 min", "setting": "[3]; 2.5 mg/kg", "value": "14.8±8.74", "unit": "%"}, {"measurement": "Swelling rate (%) 30 min", "setting": "[3]; 2.5 mg/kg", "value": "18.9±12.1", "unit": "%"}, {"measurement": "Swelling rate (%) 60 min", "setting": "[3]; 2.5 mg/kg", "value": "23.5±13.3^∗▲▲ %"}, {"measurement": "Swelling rate (%) 120 min", "setting": "[3]; 2.5 mg/kg", "value": "28.9±14.2^∗∗Δ▲ %"}, {"measurement": "Swelling rate (%) 180 min", "setting": "[3]; 2.5 mg/kg", "value": "31.8±14.8^∗∗Δ▲ %"}, {"measurement": "Swelling rate (%) 240 min", "setting": "[3]; 2.5 mg/kg", "value": "33.1±18.3^∗∗Δ▲ %"}, {"measurement": "Swelling rate (%) 300 min", "setting": "[3]; 2.5 mg/kg", "value": "34.9±19.6^∗∗Δ▲ %"}, {"measurement": "Swelling rate (%) 360 min", "setting": "[3]; 2.5 mg/kg", "value": "37.8±18.3^∗▲▲ %"}, {"measurement": "Swelling rate (%) 15 min", "setting": "[3]; 10.0 mg/kg", "value": "14.9±6.13", "unit": "%"}, {"measurement": "Swelling rate (%) 30 min", "setting": "[3]; 10.0 mg/kg", "value": "21.9±9.72", "unit": "%"}, {"measurement": "Swelling rate (%) 60 min", "setting": "[3]; 10.0 mg/kg", "value": "27.1±13.5", "unit": "%"}, {"measurement": "Swelling rate (%) 120 min", "setting": "[3]; 10.0 mg/kg", "value": "30.7±10.2^∗ %"}, {"measurement": "Swelling rate (%) 180 min", "setting": "[3]; 10.0 mg/kg", "value": "33.8±12.1^∗ %"}, {"measurement": "Swelling rate (%) 240 min", "setting": "[3]; 10.0 mg/kg", "value": "31.0±11.3^∗ %"}, {"measurement": "Swelling rate (%) 300 min", "setting": "[3]; 10.0 mg/kg", "value": "35.8±13.5^∗ %"}, {"measurement": "Swelling rate (%) 360 min", "setting": "[3]; 10.0 mg/kg", "value": "36.4±10.2", "unit": "%"}]}
